In EP0414952A1, “Dithiolane derivatives” (NIHON NOHYAKU CO., LTD., priority 1989, dated 1991):

System: carbon tetrachloride-induced hepatic disorders
Assay: Effect of inhibiting carbon tetrachloride-induced hepatic disorders
Format: in vivo
Conditions: male mice of dd strain, mean of 5 mice; for Hepatic Disorder index: 30 mg/kg orally in olive oil 6 hours before carbon tetrachloride 0.05 ml/kg orally, sacrificed 24 hours after, visual score 0 (healthy liver) to 6 (heavy disorder); for p-GPT(K.U.): plasma glutamic-pyruvic transaminase activity, Reitman-Frankel method, 30 mg/kg orally 6 hours before carbon tetrachloride 0.05 ml/kg orally, 24 hours after, values above 2,100 counted as 2,100
Description: Effect of inhibiting carbon tetrachloride-induced hepatic disorders A test compound was dissolved or suspended in olive oil and the resulting solution or suspension was orally administered to male mice (6 week age) of dd strain in a dose of 30 mg/kg. Six hours after the administration, carbon tetrachloride was orally administered to the mice in a dose of 0.05 ml/kg. The mice were sacrificed 24 hours after the administration of carbon tetrachloride. Degree of hepatic disorders was visually examined. On the other hand, blood was collected when they were sacrificed and plasma was obtained by centrifugation. Plasma glutamic-pyruvic transaminase (GPT) activity was determined according to the Reitman-Frankel method and the activity was expressed by Karmen Unit (K.U.). The hepatic disorder index is evaluated as below. [table] Five (5) mice were used in each group and the results are shown by a mean value. Further with respect to GPT activity, no further measurement was conducted with the case showing more than 2,100 units but for brevity, it was calculated as 2,100 units.

Structure (SMILES) | Hepatic Disorder index | p-GPT(K.U.)
CN(C)C1SC(=C2C(=O)CCCC2=O)SC1N(C)C (centres unmarked) [Compound No. 1, 2-((4,5-bis(dimethylamino)-1,3-dithiolan)-2-ylidene)-1,3-dioxocyclohexane] | 0.6 | 17
CCC(=O)OC1SC(=C2C(=O)CCCC2=O)SC1N(C)C (centres unmarked) [Compound No. 7] | 0 | 15
CCN1CCN(C2SC(=C3C(=O)CC(C)(C)CC3=O)SC2OC(C)=O)CC1 (centres unmarked) [Compound No. 19] | 1.0 | 297
CC(=O)OC1SC(=C2C(=O)CC(c3ccc(C)cc3)CC2=O)SC1N(C)C (centres unmarked) [Compound No. 30] | 0.5 | 229
CN(C)C1SC(=C2C(=O)CC(C)(C)CC2=O)SC1O (centres unmarked) [Compound No. 13] | 0.4 | 157
O=C1CCCC(=O)C1=C1SC(N2CCOCC2)C(N2CCOCC2)S1 (centres unmarked) [Compound No. 2] | 0.5 | 12
Cc1ccc(C2CC(=O)C(=C3SC(O)C(N(C)C)S3)C(=O)C2)o1 (centres unmarked) [Compound No. 47] | 1.6 | 430
CCOC(=O)OC1SC(=C2C(=O)CCCC2=O)SC1N(C)C (centres unmarked) [Compound No. 8] | 0 | 18
CN(C)C1SC(=C2C(=O)CC(C)(C)CC2=O)SC1N(C)C (centres unmarked) [Compound No. 3] | 1.6 | 49
CC(=O)OC1SC(=C2C(=O)CC(c3ccco3)CC2=O)SC1N1CCN(C)CC1 (centres unmarked) [Compound No. 46] | 0.2 | 205
